Data published in the supplement of paper PMC10331698.
± gives the standard deviation of the averaged measurements.

Experiments:
Experiment in all cases: level (log10 ratio to DMSO vehicle control); higher = higher biomarker level / cell amount than vehicle control
Settings in all cases: in DMSO
[1] = compound: CC(C)(C)C(=O)CC(=O)C(F)(F)C(F)(F)C(F)(F)F [(Heptafluorobutanoyl)pivaloylmethane]
Method: (§1)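 BioMAP Diversity Plus panel of 12 human primary cell co-culture systems (3C, 4H, LPS, SAg, BT, BF4T, BE3C, CASM3C, HDF3CGF, KF3CT, MyoF, Mphg). Compounds were added 1 h before stimulation and left for 24 h (MyoF 48 h; BT 72 h for soluble read-outs or 6 d for IgG). Biomarkers were read by ELISA, cytotoxicity by SRB, PBMC viability and proliferation by Alamar Blue. Each well value was divided by the mean of 8 DMSO control wells on the same plate and log10 transformed; duplicate blinded samples were tested at 4 concentrations.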

[2] = compound: CNS(=O)(=O)C(F)(F)C(F)(F)C(F)(F)C(F)(F)C(F)(F)C(F)(F)C(F)(F)C(F)(F)F [N-Methylperfluorooctanesulfonamide]
Method: as §1

Azathioprine = compound: Cn1cnc([N+](=O)[O-])c1Sc1ncnc2[nH]cnc12 [Azathioprine]
Method: as §1

[3] = compound: FC(F)(F)C(F)(F)C(F)(F)C(F)(F)C(F)(F)C(F)(F)C(F)(F)CCI [1-Iodo-1H,1H,2H,2H-perfluorononane]
Method: as §1

[4] = compound: O=C(O)CCC(F)(F)C(F)(F)C(F)(F)C(F)(F)C(F)(F)F [2H,2H,3H,3H-Perfluorooctanoic acid]
Method: as §1

[5] = compound: O=P(O)(O)CCC(F)(F)C(F)(F)C(F)(F)C(F)(F)C(F)(F)C(F)(F)C(F)(F)C(F)(F)F [((Perfluorooctyl)ethyl)phosphonic acid]
Method: as §1

| Test System | level (log10) ([1]; 6700 nM) | level (log10) ([1]; 20000 nM) | level (log10) ([1]; 60000 nM) | level (log10) ([2]; 6700 nM) | level (log10) ([2]; 20000 nM) | level (log10) ([2]; 60000 nM) | level (log10) (Azathioprine; 1400 nM) | level (log10) (Azathioprine; 4200 nM) | level (log10) (Azathioprine; 13000 nM) | level (log10) (Azathioprine; 38000 nM) | level (log10) ([3]; 6700 nM) | level (log10) ([3]; 20000 nM) | level (log10) ([4]; 6700 nM) | level (log10) ([4]; 20000 nM) | level (log10) ([4]; 60000 nM) | level (log10) ([5]; 6700 nM) | level (log10) ([5]; 20000 nM) | level (log10) ([5]; 60000 nM) |
| --- | --- | --- | --- | --- | --- | --- | --- | --- | --- | --- | --- | --- | --- | --- | --- | --- | --- | --- |
| HDF3CGF:CD106/VCAM-1 | 0.0085 ± 0.023 | 0.032 ± 0.0071 | -0.0925 ± 0.054 | -0.164 ± 0.017 | -0.176 ± 0.029 | -0.154 ± 0.0021 | -0.0485 ± 0.1 | -0.021 ± 0.03 | -0.08 ± 0.042 | -0.243 ± 0.0057 | -0.0925 ± 0.013 | -0.115 ± 0.018 | 0.046 ± 0.082 | 0.044 ± 0.088 | 0.0435 ± 0.071 | 0.098 ± 0.0028 | -0.006 ± 0.0085 | -0.145 ± 0.012 |
| lMphg:sIL-10 | 0.024 ± 0.0099 | -0.0365 ± 0.061 | 0.0125 ± 0.032 | -0.0935 ± 0.016 | -0.115 ± 0.03 | -0.169 ± 0.1 | 0.0005 ± 0.12 | -0.077 ± 0.047 | -0.117 ± 0.059 | -0.311 ± 0.081 | -0.0685 ± 0.00071 | -0.072 ± 0.021 | -0.073 ± 0.0085 | -0.043 | -0.216 ± 0.011 | -0.0215 ± 0.012 | -0.062 ± 0.017 | -0.263 ± 0.025 |
| lMphg:IL-1alpha | 0.0265 ± 0.042 | 0.0005 ± 0.0021 | 0.0175 ± 0.013 | 0.075 ± 0.017 | 0.132 ± 0.035 | 0.15 ± 0.013 | 0.0185 ± 0.067 | 0.0045 ± 0.0078 | -0.0015 ± 0.023 | -0.005 ± 0.057 | -0.012 ± 0.014 | 0.055 ± 0.045 | 0.03 ± 0.028 | 0.0675 ± 0.071 | 0.129 ± 0.067 | -0.014 ± 0.0099 | -0.0245 ± 0.025 | 0.02 ± 0.0042 |
| MyoF:TIMP-1 | 0.0095 ± 0.028 | 0.0135 ± 0.06 | 0.009 ± 0.047 | -0.0435 ± 0.00071 | -0.049 ± 0.034 | -0.0415 ± 0.005 | -0.0225 ± 0.04 | -0.056 ± 0.057 | 0.013 ± 0.068 | 0.016 ± 0.071 | -0.002 ± 0.054 | 0.0165 ± 0.042 | -0.035 ± 0.088 | -0.0365 ± 0.087 | -0.0155 ± 0.071 | 0.0415 ± 0.0078 | 0.0765 ± 0.0078 | 0.0715 ± 0.026 |
| CASM3C:SRB | 0.01 ± 0.0014 | -0.002 ± 0.0014 | 0.0035 ± 0.00071 | 0.01 ± 0.0014 | -0.0015 ± 0.0021 | 0.002 ± 0.0028 | 0.0015 ± 0.0092 | 0.003 ± 0.0057 | -0.013 ± 0.0014 | -0.0365 ± 0.0078 | -0.0025 ± 0.0021 | -0.0015 ± 0.0064 | -0.0045 ± 0.015 | -0.0105 ± 0.00071 | -0.0105 ± 0.0021 | -0.0115 ± 0.0035 | -0.017 ± 0.0028 | -0.008 ± 0.0085 |
| lMphg:CCL2/MCP-1 | -0.0135 ± 0.025 | -0.018 ± 0.0071 | -0.0255 ± 0.021 | -0.034 ± 0.0099 | -0.061 ± 0.033 | -0.0465 ± 0.04 | 0.0055 ± 0.025 | -0.0005 ± 0.0092 | -0.0315 ± 0.0078 | -0.0755 ± 0.011 | -0.014 ± 0.0071 | 0.0385 ± 0.032 | 0.007 ± 0.016 | -0.0115 ± 0.005 | -0.01 | -0.0325 ± 0.0092 | -0.059 ± 0.024 | -0.039 ± 0.04 |
| CASM3C:CD87/uPAR | 0.003 ± 0.02 | -0.0235 ± 0.0064 | -0.014 ± 0.023 | -0.0035 ± 0.0064 | -0.0255 ± 0.022 | -0.0495 ± 0.013 | 0.0115 ± 0.0021 | 0.014 ± 0.0099 | -0.002 ± 0.067 | -0.0325 ± 0.0035 | -0.0105 ± 0.028 | -0.013 ± 0.028 | -0.008 ± 0.013 | -0.011 ± 0.0071 | -0.0305 ± 0.0092 | -0.022 ± 0.013 | -0.0345 ± 0.015 | -0.041 ± 0.014 |
| CASM3C:CD106/VCAM-1 | -0.006 ± 0.014 | -0.004 ± 0.021 | -0.002 ± 0.03 | -0.088 ± 0.044 | -0.14 ± 0.061 | -0.0895 ± 0.06 | -0.0125 ± 0.022 | -0.0155 ± 0.0092 | -0.0485 ± 0.018 | -0.136 ± 0.023 | -0.019 ± 0.0099 | -0.0645 ± 0.012 | 0.0025 ± 0.019 | 0.0115 ± 0.044 | 0.01 ± 0.018 | -0.0325 ± 0.00071 | 0 ± 0.0014 | 0.0335 ± 0.019 |
| CASM3C:Proliferation | -0.032 ± 0.03 | 0.0195 ± 0.0092 | -0.017 ± 0.037 | 0.015 ± 0.031 | -0.006 ± 0.035 | -0.0605 ± 0.094 | -0.0225 ± 0.037 | -0.0225 ± 0.005 | -0.0785 ± 0.012 | -0.147 ± 0.028 | -0.001 | 0.0105 ± 0.04 | -0.014 ± 0.045 | 0.002 ± 0.0014 | 0.011 ± 0.04 | -0.0545 ± 0.005 | -0.062 ± 0.044 | -0.101 ± 0.03 |
| KF3CT:CXCL10/IP-10 | 0.004 ± 0.0099 | -0.006 ± 0.0028 | 0.007 ± 0.0014 | 0.0005 ± 0.04 | 0.003 ± 0.034 | 0.0255 ± 0.026 | 0.0135 ± 0.00071 | -0.0035 ± 0.0021 | -0.0105 ± 0.011 | -0.0035 ± 0.019 | -0.0065 ± 0.005 | -0.0235 ± 0.0092 | -0.0045 ± 0.0021 | -0.0125 ± 0.0078 | -0.0185 ± 0.011 | 0.0105 ± 0.028 | 0.023 ± 0.013 | 0.0205 ± 0.005 |
| HDF3CGF:MMP-1 | 0.006 ± 0.0071 | -0.002 ± 0.0014 | 0.01 ± 0.024 | -0.008 ± 0.016 | -0.005 ± 0.011 | 0.0005 ± 0.013 | 0.0005 ± 0.0021 | 0.02 ± 0.021 | 0.0275 ± 0.022 | 0.0415 ± 0.0021 | 0.011 ± 0.017 | 0.061 ± 0.04 | -0.009 ± 0.023 | -0.0385 ± 0.05 | -0.0675 ± 0.076 | -0.019 ± 0.011 | -0.021 ± 0.0057 | -0.05 ± 0.0042 |
| BE3C:tPA | -0.026 ± 0.0071 | -0.0035 ± 0.025 | -0.0275 ± 0.032 | 0.186 ± 0.0057 | 0.192 ± 0.0099 | 0.176 ± 0.005 | -0.005 ± 0.078 | -0.0285 ± 0.083 | -0.108 ± 0.083 | -0.236 ± 0.079 | 0.004 ± 0.035 | 0.011 ± 0.035 | -0.0005 ± 0.005 | -0.0035 ± 0.013 | 0.0265 ± 0.013 | 0.123 ± 0.005 | 0.191 ± 0.0014 | 0.202 ± 0.032 |
| HDF3CGF:CXCL8/IL-8 | 0.0025 ± 0.0035 | -0.001 ± 0.0099 | -0.0005 ± 0.0035 | -0.0145 ± 0.0035 | -0.0195 ± 0.00071 | -0.0015 ± 0.0035 | 0.006 ± 0.014 | -0.0155 ± 0.021 | -0.009 ± 0.0028 | 0.0045 ± 0.029 | 0.002 ± 0.0014 | 0.0165 ± 0.019 | -0.014 ± 0.014 | -0.009 ± 0.014 | -0.007 ± 0.025 | -0.0065 ± 0.022 | -0.005 ± 0.0057 | -0.0485 ± 0.011 |
| BE3C:PAI-I | -0.028 ± 0.068 | -0.009 ± 0.083 | -0.0145 ± 0.1 | -0.157 ± 0.013 | -0.162 ± 0.029 | -0.138 ± 0.025 | -0.0235 ± 0.044 | 0.015 ± 0.042 | 0.003 ± 0.05 | -0.071 ± 0.03 | 0.016 ± 0.0071 | -0.01 ± 0.0099 | -0.0035 ± 0.0064 | 0.027 ± 0.011 | 0.044 ± 0.0057 | 0.015 ± 0.0014 | -0.0115 ± 0.011 | -0.032 ± 0.0042 |
| MyoF:Decorin | 0.0195 ± 0.059 | 0.018 ± 0.03 | 0.0365 ± 0.021 | 0.0105 ± 0.012 | 0.005 ± 0.0085 | -0.016 ± 0.0085 | -0.007 ± 0.024 | -0.009 ± 0.023 | -0.0165 ± 0.015 | -0.013 ± 0.018 | 0.014 ± 0.0042 | 0.038 ± 0.05 | -0.0075 ± 0.0021 | -0.0065 ± 0.00071 | 0.019 ± 0.0071 | 0.0185 ± 0.00071 | 0.028 ± 0.0099 | 0.0305 ± 0.046 |
| KF3CT:PAI-I | -0.0065 ± 0.019 | -0.0025 ± 0.016 | 0.004 ± 0.02 | 0.0465 ± 0.0078 | 0.101 ± 0.0071 | 0.0425 ± 0.028 | 0.01 ± 0.024 | -0.0105 ± 0.015 | -0.0365 ± 0.011 | -0.071 ± 0.0071 | 0.0115 ± 0.022 | 0.017 ± 0.021 | -0.0015 ± 0.00071 | -0.0065 ± 0.0021 | -0.017 ± 0.0085 | -0.037 ± 0.035 | -0.055 ± 0.02 | -0.0595 ± 0.03 |
